Measurements as given in ChEMBL document CHEMBL1201861, “Genomics of Drug Sensitity in Cancer screening data, Wellcome Trust Sanger Institute”.

Legend:
SK-MM-2 = test: cells; type: functional, cell-based, Homo sapiens; conditions: Homo sapiens, SK-MM-2;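 note: growth inhibition of human SK-MM-2 cells, read out with a cell viability assay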
Description: SANGER: Inhibition of human SK-MM-2 cell growth in a cell viability assay.

CESS = test: SANGER: Inhibition of human CESS cell growth in a cell viability assay.; type: functional, cell-based; conditions: Homo sapiens, CESS
SR = test: cells; type: functional, cell-based, Homo sapiens; conditions: Homo sapiens, SR
Description: SANGER: Inhibition of human SR cell growth in a cell viability assay.

NCI-H187 = test: cells; type: functional, cell-based, Homo sapiens; conditions: Homo sapiens, NCI-H187;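 note: growth inhibition of NCI-H187 cells, read out as cell viability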
Description: SANGER: Inhibition of human NCI-H187 cell growth in a cell viability assay.

CMK = test: cells; type: functional, cell-based, Homo sapiens; conditions: Homo sapiens, CMK;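 note: growth inhibition of CMK cells, read out as cell viability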
Description: SANGER: Inhibition of human CMK cell growth in a cell viability assay.

EVSA-T = test: cells; type: functional, cell-based, Homo sapiens; conditions: Homo sapiens, EVSA-T;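 note: growth inhibition of EVSA-T cells, read out with a cell viability assay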
Description: SANGER: Inhibition of human EVSA-T cell growth in a cell viability assay.

RL95-2 = test: cells; type: functional, cell-based; conditions: Homo sapiens;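 note: RL95-2 growth inhibition determined through a cell viability readout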
Description: SANGER: Inhibition of human RL95-2 cell growth in a cell viability assay.

BC1 cell line = test: SANGER: Inhibition of human BC-1 cell growth in a cell viability assay.; type: functional, cell-based; conditions: Homo sapiens, BC1
TUR = test: cells; type: functional, cell-based, Homo sapiens; conditions: Homo sapiens, TUR;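 note: growth inhibition of human TUR cells, read out with a cell viability assay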
Description: SANGER: Inhibition of human TUR cell growth in a cell viability assay.

THP-1 = test: cells; type: functional, cell-based, Homo sapiens; conditions: Homo sapiens, THP-1;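 note: growth inhibition of THP-1 cells, read out via a cell viability assay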
Description: SANGER: Inhibition of human THP-1 cell growth in a cell viability assay.

KYSE-270 = test: cells; type: functional, cell-based, Homo sapiens;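 note: cell growth inhibition measured with a viability assay in the human KYSE-270 line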
Description: SANGER: Inhibition of human KYSE-270 cell growth in a cell viability assay.

SW-620 = test: cells; type: functional, cell-based, Homo sapiens;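 note: growth inhibition of human SW-620 cells, measured by a cell viability assay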
Description: SANGER: Inhibition of human SW620 cell growth in a cell viability assay.

UACC-62 = test: cells; type: functional, cell-based, Homo sapiens;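 note: growth inhibition of human UACC-62 cells, read out by a cell viability assay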
Description: SANGER: Inhibition of human UACC-62 cell growth in a cell viability assay.

SK-LU-1 = test: cells; type: functional, cell-based, Homo sapiens;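 note: cell viability assay measuring growth inhibition of human SK-LU-1 cells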
Description: SANGER: Inhibition of human SK-LU-1 cell growth in a cell viability assay.

HN = test: cells; type: functional, cell-based, Homo sapiens
Description: SANGER: Inhibition of human HN cell growth in a cell viability assay.

SAS = test: cells; type: functional, cell-based, Homo sapiens;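 note: growth inhibition of SAS cells, read out with a cell viability assay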
Description: SANGER: Inhibition of human SAS cell growth in a cell viability assay.

NY = test: cells; type: functional, cell-based, Homo sapiens
Description: SANGER: Inhibition of human NY cell growth in a cell viability assay.

COR-L23 = test: cells; type: functional, cell-based, Homo sapiens;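 note: cell viability assay measuring how strongly compounds suppress growth of COR-L23 cells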
Description: SANGER: Inhibition of human COR-L23 cell growth in a cell viability assay.

ChaGo-K-1 = test: cells; type: functional, cell-based, Homo sapiens;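 note: growth inhibition of ChaGo-K-1 cells, read out with a cell viability assay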
Description: SANGER: Inhibition of human ChaGo-K-1 cell growth in a cell viability assay.

HuP-T3 = test: cells; type: functional, cell-based, Homo sapiens;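 note: HuP-T3 cell growth inhibition, read out with a cell viability assay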
Description: SANGER: Inhibition of human HuP-T3 cell growth in a cell viability assay.

MEL-HO = test: cells; type: functional, cell-based, Homo sapiens
Description: SANGER: Inhibition of human MEL-HO cell growth in a cell viability assay.

SW780 = test: cells; type: functional, cell-based, Homo sapiens;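 note: growth inhibition of the cells, read out with a cell viability assay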
Description: SANGER: Inhibition of human SW780 cell growth in a cell viability assay.

DK-MG = test: cells; type: functional, cell-based, Homo sapiens;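 note: growth inhibition of DK-MG cells, read out with a cell viability assay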
Description: SANGER: Inhibition of human DK-MG cell growth in a cell viability assay.

HCC1954 = test: cells; type: functional, cell-based, Homo sapiens;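 note: growth inhibition of human HCC1954 cells, read out with a cell viability assay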
Description: SANGER: Inhibition of human HCC1954 cell growth in a cell viability assay.

SW756 = test: cells; type: functional, cell-based, Homo sapiens;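 note: growth inhibition of human SW756 cells, read out with a cell viability assay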
Description: SANGER: Inhibition of human SW756 cell growth in a cell viability assay.

YAPC = test: cells; type: functional, cell-based, Homo sapiens;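 note: growth inhibition of YAPC cells, measured with a cell viability assay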
Description: SANGER: Inhibition of human YAPC cell growth in a cell viability assay.

HO-1-N-1 = test: cells; type: functional, cell-based, Homo sapiens;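 note: growth inhibition of human HO-1-N-1 cells, read out with a cell viability assay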
Description: SANGER: Inhibition of human HO-1-N-1 cell growth in a cell viability assay.

MKN-7 = test: cells; type: functional, cell-based, Homo sapiens;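 note: growth inhibition of MKN-7 cells, read out with a cell viability assay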
Description: SANGER: Inhibition of human MKN7 cell growth in a cell viability assay.

NCI-H520 = test: cells; type: functional, cell-based, Homo sapiens;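 note: growth inhibition of NCI-H520 cells, measured by a cell viability assay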
Description: SANGER: Inhibition of human NCI-H520 cell growth in a cell viability assay.

NCI-H630 = test: cells; type: functional, cell-based, Homo sapiens;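 note: growth inhibition of NCI-H630 cells, read out with a cell viability assay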
Description: SANGER: Inhibition of human NCI-H630 cell growth in a cell viability assay.

A549 = test: cells; type: functional, cell-based, Homo sapiens;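 note: growth inhibition of A549 cells, read out with a cell viability assay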
Description: SANGER: Inhibition of human A549 cell growth in a cell viability assay.

BFTC-909 = test: cells; type: functional, cell-based, Homo sapiens
Description: SANGER: Inhibition of human BFTC-909 cell growth in a cell viability assay.

SW1783 = test: cells; type: functional, cell-based, Homo sapiens
Description: SANGER: Inhibition of human SW1783 cell growth in a cell viability assay.

NCI-H1693 = test: cells; type: functional, cell-based, Homo sapiens;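 note: growth inhibition of the human cell line, read out with a cell viability assay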
Description: SANGER: Inhibition of human NCI-H1693 cell growth in a cell viability assay.

SF-295 = test: cells; type: functional, cell-based, Homo sapiens;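 note: growth inhibition of SF-295 cells, read out with a cell viability assay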
Description: SANGER: Inhibition of human SF295 cell growth in a cell viability assay.

D-566MG = test: cells; type: functional, cell-based, Homo sapiens
UMUC3 = test: cells; type: functional, cell-based, Homo sapiens;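 note: growth inhibition of human UM-UC-3 cells, read out with a cell viability assay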
Description: SANGER: Inhibition of human UM-UC-3 cell growth in a cell viability assay.

SK-MES-1 = test: cells; type: functional, cell-based, Homo sapiens;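 note: growth inhibition of human SK-MES-1 cells, read out with a cell viability assay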
Description: SANGER: Inhibition of human SK-MES-1 cell growth in a cell viability assay.

A-431 = test: cells; type: functional, cell-based, Homo sapiens;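 note: growth inhibition of A-431 cells, determined with a cell viability read-out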
Description: SANGER: Inhibition of human A431 cell growth in a cell viability assay.

DOK = test: cells; type: functional, cell-based, Homo sapiens;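 note: cell viability assay read-out, values reflect inhibition of cell growth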
Description: SANGER: Inhibition of human DOK cell growth in a cell viability assay.

SW13 = test: cells; type: functional, cell-based, Homo sapiens;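 note: IC50 is inhibition of SW13 cell growth, read out with a cell viability assay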
Description: SANGER: Inhibition of human SW13 cell growth in a cell viability assay.

PC-14 = test: cells; type: functional, cell-based, Homo sapiens;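 note: cell viability assay measuring inhibition of PC-14 cell growth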
Description: SANGER: Inhibition of human PC-14 cell growth in a cell viability assay.

HuCCT-1 = test: cells; type: functional, cell-based, Homo sapiens, HuCCT1;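 note: growth inhibition of HuCCT-1 cells, read out by a cell viability assay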
Description: SANGER: Inhibition of human HuCCT1 cell growth in a cell viability assay.

RCM-1 = test: cells; type: functional, cell-based, Homo sapiens;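 note: growth inhibition of the RCM-1 line, determined with a cell viability readout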
Description: SANGER: Inhibition of human RCM-1 cell growth in a cell viability assay.

HGC-27 = test: cells; type: functional, cell-based, Homo sapiens;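 note: growth inhibition of human HGC-27 cells, read out in a cell viability assay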
Description: SANGER: Inhibition of human HGC-27 cell growth in a cell viability assay.

T47D = test: cells; type: functional, cell-based, Homo sapiens;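 note: growth inhibition of human T47D cells, measured with a cell viability assay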
Description: SANGER: Inhibition of human T47D cell growth in a cell viability assay.

OC-314 = test: cells; type: functional, cell-based, Homo sapiens
Description: SANGER: Inhibition of human OC-314 cell growth in a cell viability assay.

VMRC-RCZ = test: cells; type: functional, cell-based, Homo sapiens
Description: SANGER: Inhibition of human VMRC-RCZ cell growth in a cell viability assay.

GCT = test: cells; type: functional, cell-based, Homo sapiens;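 note: GCT cell line proliferation inhibition, read out with a cell viability assay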
Description: SANGER: Inhibition of human GCT cell growth in a cell viability assay.

COc1cc2ncn(-c3cc(OCc4ccccc4S(C)(=O)=O)c(C#N)s3)c2cc1OC [GSK-319347A]
IC50 (SK-MM-2): > 5 µM
IC50 (CESS): > 5 µM
IC50 (SR): > 5 µM
IC50 (NCI-H187): > 5 µM
IC50 (CMK): > 5 µM
IC50 (EVSA-T): > 5 µM
IC50 (RL95-2): > 5 µM
IC50 (BC1 cell line): > 5 µM
IC50 (TUR): > 5 µM
IC50 (THP-1): > 5 µM

CC[C@H](CO)Nc1nc(NCc2ccccc2)c2ncn(C(C)C)c2n1 [SELICICLIB]
IC50 (SK-MM-2): > 16 µM
IC50 (CESS): > 16 µM
IC50 (SR): > 16 µM
IC50 (NCI-H187): > 16 µM
IC50 (CMK): > 16 µM
IC50 (EVSA-T): > 16 µM
IC50 (RL95-2): > 16 µM
IC50 (BC1 cell line): > 16 µM
IC50 (TUR): > 16 µM
IC50 (THP-1): > 16 µM

CO[C@H]1C[C@@H]2CC[C@@H](C)[C@@](O)(O2)C(=O)C(=O)N2CCCC[C@H]2C(=O)O[C@H]([C@H](C)C[C@@H]2CC[C@@H](OC(=O)C(C)(CO)CO)[C@H](OC)C2)CC(=O)[C@H](C)/C=C(\C)[C@@H](O)[C@@H](OC)C(=O)[C@H](C)C[C@H](C)/C=C/C=C/C=C/1C [TEMSIROLIMUS]
IC50 (KYSE-270; Homo sapiens, KYSE-270): 0.164 µM
IC50 (SW-620; Homo sapiens, SW-620): 0.106 µM
IC50 (UACC-62; Homo sapiens, UACC-62): > 0.2 µM
IC50 (SK-LU-1; Homo sapiens, SK-LU-1): 0.102 µM
IC50 (HN; Homo sapiens, HN): > 0.2 µM
IC50 (SAS; Homo sapiens, SAS): > 0.2 µM
IC50 (NY; Homo sapiens, NY): > 0.2 µM
IC50 (COR-L23; Homo sapiens, COR-L23): > 0.2 µM
IC50 (ChaGo-K-1; Homo sapiens, ChaGo-K-1): > 0.2 µM
IC50 (HuP-T3; Homo sapiens, HuP-T3): > 0.2 µM
IC50 (MEL-HO; Homo sapiens, MEL-HO): 0.0336 µM
IC50 (SW780; Homo sapiens, SW780): 0.00483 µM
IC50 (DK-MG; Homo sapiens, DK-MG): > 0.2 µM
IC50 (HCC1954; Homo sapiens, HCC1954): > 0.2 µM
IC50 (SW756; Homo sapiens, SW756): > 0.2 µM
IC50 (YAPC; Homo sapiens, YAPC): > 0.2 µM
IC50 (HO-1-N-1; Homo sapiens, HO-1-N-1): 0.0082 µM
IC50 (MKN-7; Homo sapiens, MKN-7): > 0.2 µM
IC50 (NCI-H520; Homo sapiens, NCI-H520): > 0.2 µM
IC50 (NCI-H630; Homo sapiens, NCI-H630): > 0.2 µM
IC50 (A549; Homo sapiens, A549): 0.0202 µM
IC50 (BFTC-909; Homo sapiens, BFTC-909): > 0.2 µM
IC50 (SW1783; Homo sapiens, SW1783): > 0.2 µM
IC50 (NCI-H1693; Homo sapiens, NCI-H1693): 0.0922 µM
IC50 (SF-295; Homo sapiens, SF-295): 0.0605 µM
IC50 (D-566MG; Homo sapiens, D-566MG): 0.00716 µM
IC50 (UMUC3; Homo sapiens, UMUC3): 0.0692 µM
IC50 (SK-MES-1; Homo sapiens, SK-MES-1): > 0.2 µM
IC50 (A-431; Homo sapiens, A-431): > 0.2 µM
IC50 (DOK; Homo sapiens, DOK): 0.041 µM
IC50 (SW13; Homo sapiens, SW13): 0.186 µM
IC50 (PC-14; Homo sapiens, PC-14): > 0.2 µM
IC50 (HuCCT-1; Homo sapiens, HuCCT-1): > 0.2 µM
IC50 (RCM-1; Homo sapiens, RCM-1): > 0.2 µM
IC50 (HGC-27; Homo sapiens, HGC-27): 0.0096 µM
IC50 (T47D; Homo sapiens, T47D): 0.107 µM
IC50 (OC-314; Homo sapiens, OC-314): 0.0179 µM
IC50 (VMRC-RCZ; Homo sapiens, VMRC-RCZ): > 0.2 µM
IC50 (GCT; Homo sapiens, GCT): > 0.2 µM

CS(=O)(=O)c1ccc(C(=O)Nc2ccc(Cl)c(-c3ccccn3)c2)c(Cl)c1 [VISMODEGIB]
IC50 (KYSE-270; Homo sapiens, KYSE-270): > 10 µM
IC50 (SW-620; Homo sapiens, SW-620): > 10 µM
IC50 (UACC-62; Homo sapiens, UACC-62): > 10 µM
IC50 (SK-LU-1; Homo sapiens, SK-LU-1): > 10 µM
IC50 (HN; Homo sapiens, HN): > 10 µM
IC50 (SAS; Homo sapiens, SAS): > 10 µM
IC50 (NY; Homo sapiens, NY): > 10 µM
IC50 (COR-L23; Homo sapiens, COR-L23): > 10 µM
IC50 (ChaGo-K-1; Homo sapiens, ChaGo-K-1): > 10 µM
IC50 (HuP-T3; Homo sapiens, HuP-T3): > 10 µM
IC50 (MEL-HO; Homo sapiens, MEL-HO): > 10 µM
IC50 (SW780; Homo sapiens, SW780): > 10 µM
IC50 (DK-MG; Homo sapiens, DK-MG): > 10 µM
IC50 (HCC1954; Homo sapiens, HCC1954): > 10 µM
IC50 (SW756; Homo sapiens, SW756): > 10 µM
IC50 (YAPC; Homo sapiens, YAPC): > 10 µM
IC50 (HO-1-N-1; Homo sapiens, HO-1-N-1): > 10 µM
IC50 (MKN-7; Homo sapiens, MKN-7): > 10 µM
IC50 (NCI-H520; Homo sapiens, NCI-H520): > 10 µM
IC50 (NCI-H630; Homo sapiens, NCI-H630): > 10 µM
IC50 (A549; Homo sapiens, A549): > 10 µM
IC50 (BFTC-909; Homo sapiens, BFTC-909): > 10 µM
IC50 (SW1783; Homo sapiens, SW1783): > 10 µM
IC50 (NCI-H1693; Homo sapiens, NCI-H1693): > 10 µM
IC50 (SF-295; Homo sapiens, SF-295): > 10 µM
IC50 (D-566MG; Homo sapiens, D-566MG): > 10 µM
IC50 (UMUC3; Homo sapiens, UMUC3): > 10 µM
IC50 (SK-MES-1; Homo sapiens, SK-MES-1): > 10 µM
IC50 (A-431; Homo sapiens, A-431): > 10 µM
IC50 (DOK; Homo sapiens, DOK): > 10 µM
IC50 (SW13; Homo sapiens, SW13): > 10 µM
IC50 (PC-14; Homo sapiens, PC-14): > 10 µM
IC50 (HuCCT-1; Homo sapiens, HuCCT-1): > 10 µM
IC50 (RCM-1; Homo sapiens, RCM-1): > 10 µM
IC50 (HGC-27; Homo sapiens, HGC-27): > 10 µM
IC50 (T47D; Homo sapiens, T47D): > 10 µM
IC50 (OC-314; Homo sapiens, OC-314): > 10 µM
IC50 (VMRC-RCZ; Homo sapiens, VMRC-RCZ): > 10 µM
IC50 (GCT; Homo sapiens, GCT): > 10 µM

CISPLATIN
IC50 (KYSE-270; kyse-270): 9.08 µM
IC50 (SW-620; sw-620): 160 µM
IC50 (UACC-62; uacc-62): 12.4 µM
IC50 (SK-LU-1; sk-lu-1): 7.38 µM
IC50 (HN; hn): 36 µM
IC50 (SAS; sas): 18.5 µM
IC50 (NY; ny): 28.2 µM
IC50 (COR-L23; cor-l23): 5.63 µM
IC50 (ChaGo-K-1; chago-k-1): 15.2 µM
IC50 (HuP-T3; hup-t3): 53.9 µM
IC50 (MEL-HO; mel-ho): 1.07 µM
IC50 (SW780; sw780): 14 µM
IC50 (DK-MG; dk-mg): 137 µM
IC50 (HCC1954; hcc1954): 1030 µM
IC50 (SW756; sw756): 9.26 µM
IC50 (YAPC; yapc): 1160 µM
IC50 (HO-1-N-1; ho-1-n-1): 39.4 µM
IC50 (MKN-7; mkn-7): 20 µM
IC50 (NCI-H520; nci-h520): 72.8 µM
IC50 (NCI-H630; nci-h630): 514 µM
IC50 (A549; a549): 18.8 µM
IC50 (BFTC-909; bftc-909): 14.9 µM
IC50 (SW1783; sw1783): 23.3 µM
IC50 (NCI-H1693; nci-h1693): 122 µM
IC50 (SF-295; sf-295): 9.34 µM
IC50 (D-566MG; d-566mg): 3.48 µM
IC50 (UMUC3; umuc3): 3.93 µM
IC50 (SK-MES-1; sk-mes-1): 129 µM
IC50 (A-431; a-431): 572 µM
IC50 (DOK; dok): 12.5 µM
IC50 (SW13; sw13): 14.3 µM
IC50 (PC-14; pc-14): 5.72 µM
IC50 (HuCCT-1; hucct1): 70.1 µM
IC50 (RCM-1; rcm-1): 123 µM
IC50 (HGC-27; hgc-27): 6.65 µM
IC50 (T47D; t47d): 129 µM
IC50 (OC-314; oc-314): 14 µM
IC50 (VMRC-RCZ; vmrc-rcz): 298 µM
IC50 (GCT; gct): 6.12 µM
